These results are taken from patent US12459922B2 (Gilead Sciences, Inc., priority 2022, dated 2025).

The subject of this test is endogenous cellular STAT1 (phosphorylated at Tyr701) in NCI-H1373 cells. Nature of the test: Phospho-STAT1 (Tyr701) LANCE Ultra TR-FRET Detection Assay. The format is cell-based. The note with it: Homo sapiens, NCI-H1373, 48 h, phospho-STAT1 (Tyr701) induction, read-out: NH1373 pSTAT1 EC50. The protocol: Phospho-STAT1 (Tyr701 LANCE Ultra TR-FRET Detection Assay
d. LANCE Ultra phospho-STAT1 (Tyr701) kits are designed for the detection of phosphorylated STAT1 in cell lysates using a simple, homogeneous LANCE Ultra sandwich assay (Cat. #TRF4028M). This assay is intended for assessing compound induction of endogenous levels of cellular STAT1 (phosphorylated at Tyr701) in NCI-H1373 cells. The NCI-H1373 cells are cultured in RPMI 1640 media containing 10% heat inactivated FBS, GlutaMAX, 1% Penicillin-Streptomycin. An Echo acoustic liquid handler is used to transfer 60 nanoliters of compound dilutions using the Echo Qualified, 384-well polypropylene microplate clear flat bottom source plates into a Greiner (#781080) cell culture microplate. NCI-H1373 cells are seeded into these compound-spotted culture plates at 30,000 cells/well in a 60 uL volume in growth media. The plates are incubated in a 5% CO2 humidified incubator at 37° C. for 48 hours. […] After spinning the plate down at 300 rpm for 1 min, the plate is read on an EnVision plate reader set up for Eu3+ Cryptate and fluorescence emission is measured at two different wavelengths (665 nm and 620 nm). The HTRF ratio is then calculated […] for each well to determine the amount of pSTAT1 in the cell lysate, and the data is then normalized to 10 uM GS-1154611 positive and DMSO negative controls.
For orientation: TR-FRET usually uses a lanthanide donor and a delayed reading to cut background.

Each structure is given as a SMILES string.

The EC50 is the concentration giving half of the maximal effect.

In the case of `C[C@@H](CCCn1ccc2cc(-c3ccc(F)c(C(F)F)n3)c(F)cc2c1=O)Nc1cn[nH]c(=O)c1C(F)(F)F` [Example 330, (S)-6-(6-(difluoromethyl)-5-fluoropyridin-2-yl)-7-fluoro-2-(4-((6-oxo-5-(trifluoromethyl)-1,6-dihydropyridazin-4-yl)amino)pentyl)isoquinolin-1(2H)-one], the EC50 was determined as 1210 nM.

For `CN(CCCn1ccc2cc(-c3ncc(C(F)(F)F)cn3)c(F)cc2c1=O)Nc1cn[nH]c(=O)c1C(F)(F)F` [Example 172, 7-fluoro-2-(3-(1-methyl-2-(6-oxo-5-(trifluoromethyl)-1,6-dihydropyridazin-4-yl)hydrazineyl)propyl)-6-(5-(trifluoromethyl)pyrimidin-2-yl)isoquinolin-1(2H)-one], the EC50 is 1010 nM.

As for `Nc1nc(-c2cc3ccn(C[C@@H]4CCC[C@H](Nc5cn[nH]c(=O)c5C(F)(F)F)C4)c(=O)c3cc2F)nc(C2CC2)c1Cl` [Example 282, 6-(4-amino-5-chloro-6-cyclopropylpyrimidin-2-yl)-7-fluoro-2-(((1R,3S)-3-((6-oxo-5-(trifluoromethyl)-1,6-dihydropyridazin-4-yl)amino)cyclohexyl)methyl)isoquinolin-1(2H)-one], the EC50 is 80.1 nM.

For `O=c1[nH]ncc(N[C@H](CCCn2ccc3cc(-c4ncc(C(F)(F)F)cn4)c(F)cc3c2=O)CC(F)(F)F)c1C(F)(F)F` [Example 453, (R)-7-fluoro-2-(6,6,6-trifluoro-4-((6-oxo-5-(trifluoromethyl)-1,6-dihydropyridazin-4-yl)amino)hexyl)-6-(5-(trifluoromethyl)pyrimidin-2-yl)isoquinolin-1(2H)-one], the EC50 worked out at 215 nM.

`C[C@@H](CCCn1ccc2cc(-c3nc4cc(F)ccn4n3)c(F)cc2c1=O)Nc1cn[nH]c(=O)c1C(F)(F)F` [Example 335, (S)-7-fluoro-6-(7-fluoro-[1,2,4]triazolo[1,5-a]pyridin-2-yl)-2-(4-((6-oxo-5-(trifluoromethyl)-1,6-dihydropyridazin-4-yl)amino)pentyl)isoquinolin-1(2H)-one]: the EC50 amounted to 5.57 nM.

As to `COc1cnc(-c2cc3ccn(CCC[C@H](C)Nc4cn[nH]c(=O)c4C(F)(F)F)c(=O)c3cc2F)nc1NC1COC1` [Example 217, (S)-7-fluoro-6-(5-methoxy-4-(oxetan-3-ylamino)pyrimidin-2-yl)-2-(4-((6-oxo-5-(trifluoromethyl)-1,6-dihydropyridazin-4-yl)amino)pentyl)isoquinolin-1(2H)-one], the EC50 turned out to be 1580 nM.

As to `C[C@@H](CCCn1ccc2cc(-c3nccc(N)n3)c(F)cc2c1=O)Nc1cn[nH]c(=O)c1C(F)(F)F` [Example 198, (S)-6-(4-aminopyrimidin-2-yl)-7-fluoro-2-(4-((6-oxo-5-(trifluoromethyl)-1,6-dihydropyridazin-4-yl)amino)pentyl)isoquinolin-1(2H)-one], the EC50 amounted to 276 nM.

For `Nc1nc(-c2cc3ccn(C[C@@H]4CCC[C@H](Nc5cn[nH]c(=O)c5C(F)(F)F)C4)c(=O)c3cc2F)ncc1C(F)F` [Example 231, 6-(4-amino-5-(difluoromethyl)pyrimidin-2-yl)-7-fluoro-2-(((1R,3S)-3-((6-oxo-5-(trifluoromethyl)-1,6-dihydropyridazin-4-yl)amino)cyclohexyl)methyl)isoquinolin-1(2H)-one], the EC50 stood at 5.92 nM.

For `CC(C)(O)c1cnc(-c2cc3ccn(C[C@@H]4CCC[C@H](Nc5cn[nH]c(=O)c5C(F)(F)F)C4)c(=O)c3cc2F)cn1` [Example 267, 7-fluoro-6-(5-(2-hydroxypropan-2-yl)pyrazin-2-yl)-2-(((1R,3S)-3-((6-oxo-5-(trifluoromethyl)-1,6-dihydropyridazin-4-yl)amino)cyclohexyl)methyl)isoquinolin-1(2H)-one], the EC50 came out at 80.2 nM.

With `O=c1[nH]ncc(N[C@H](CCCn2ccc3cc(-c4ncc(C(F)(F)F)cn4)c(F)cc3c2=O)c2nnc(C3CC3)o2)c1C(F)(F)F` [Example 476, 2-[(4R)-4-(5-cyclopropyl-1,3,4-oxadiazol-2-yl)-4-[[6-oxo-5-(trifluoromethyl)-1H-pyridazin-4-yl]amino]butyl]-7-fluoro-6-[5-(trifluoromethyl)pyrimidin-2-yl]isoquinolin-1-one], the EC50 is 20.3 nM.

For `O=c1[nH]ncc(N2Cc3ccccc3[C@H]2CCCn2ccc3cc(-c4ncc(C(F)(F)F)cn4)c(F)cc3c2=O)c1C(F)(F)F` [Example 182, 7-fluoro-2-[3-[(1R)-2-[6-oxo-5-(trifluoromethyl)-1H-pyridazin-4-yl]isoindolin-1-yl]propyl]-6-[5-(trifluoromethyl)pyrimidin-2-yl]isoquinolin-1-one], the EC50 came to 82.5 nM.

Turning to `Cc1nc(-c2cc3ccn(C[C@@H]4CCC[C@H](Nc5cn[nH]c(=O)c5C(F)(F)F)C4)c(=O)c3cc2F)nc(N)c1Cl` [Example 276, 6-(4-amino-5-chloro-6-methylpyrimidin-2-yl)-7-fluoro-2-(((1R,3S)-3-((6-oxo-5-(trifluoromethyl)-1,6-dihydropyridazin-4-yl)amino)cyclohexyl)methyl)isoquinolin-1(2H)-one], the EC50 was found to be 10.3 nM.

`O=c1[nH]ncc(N[C@H](CCCn2ccc3cc(-c4ncc(C(F)(F)F)cn4)c(F)c(F)c3c2=O)c2nnc(C3CC3)o2)c1C(F)(F)F` [Example 475, 2-[(4R)-4-(5-cyclopropyl-1,3,4-oxadiazol-2-yl)-4-[[6-oxo-5-(trifluoromethyl)-1H-pyridazin-4-yl]amino]butyl]-7,8-difluoro-6-[5-(trifluoromethyl)pyrimidin-2-yl]isoquinolin-1-one]: the EC50 was determined as 10.6 nM.

As for `C[C@@H](CCCn1cnc2cc(-c3ncc(C#N)c(N)n3)c(F)cc2c1=O)Nc1cn[nH]c(=O)c1C(F)(F)F` [Example 125, (S)-4-amino-2-(6-fluoro-4-oxo-3-(4-((6-oxo-5-(trifluoromethyl)-1,6-dihydropyridazin-4-yl)amino)pentyl)-3,4-dihydroquinazolin-7-yl)pyrimidine-5-carbonitrile], the EC50 turned out to be 84.8 nM.

In the case of `O=c1[nH]ncc(N[C@H](CCCn2ccc3cc(-c4nc5n(n4)CCNC5)c(F)cc3c2=O)COC(F)F)c1C(F)(F)F` [Example 439, (R)-2-(5-(difluoromethoxy)-4-((6-oxo-5-(trifluoromethyl)-1,6-dihydropyridazin-4-yl)amino)pentyl)-7-fluoro-6-(5,6,7,8-tetrahydro-[1,2,4]triazolo[1,5-a]pyrazin-2-yl)isoquinolin-1(2H)-one], the EC50 worked out at 534 nM.

As to `C[C@@H](CCCn1ccc2cc(-c3nc(N)ncc3C(F)F)c(F)cc2c1=O)Nc1cn[nH]c(=O)c1C(F)(F)F` [Example 105, 6-[2-amino-5-(difluoromethyl)pyrimidin-4-yl]-7-fluoro-2-[(4S)-4-[[6-oxo-5-(trifluoromethyl)-1H-pyridazin-4-yl]amino]pentyl]isoquinolin-1-one], the EC50 was 465 nM.

As to `Nc1nc(-c2cc3ccn(CCC[C@H](COC(F)F)Nc4cn[nH]c(=O)c4C(F)(F)F)c(=O)c3cc2F)ncc1OC(F)F` [Example 369, (R)-6-(4-amino-5-(difluoromethoxy)pyrimidin-2-yl)-2-(5-(difluoromethoxy)-4-((6-oxo-5-(trifluoromethyl)-1,6-dihydropyridazin-4-yl)amino)pentyl)-7-fluoroisoquinolin-1(2H)-one], the EC50 amounted to 7.35 nM.

Regarding `O=c1[nH]ncc(N[C@H]2CCC[C@@H](Cn3cc(F)c4cc(-c5ncc(C(F)(F)F)cn5)c(F)cc4c3=O)C2)c1C(F)(F)F` [Example 481, 4,7-difluoro-2-(((1R,3S)-3-((6-oxo-5-(trifluoromethyl)-1,6-dihydropyridazin-4-yl)amino)cyclohexyl)methyl)-6-(5-(trifluoromethyl)pyrimidin-2-yl)isoquinolin-1(2H)-one], the EC50 worked out at 3.24 nM.

As for `C[C@@H](CCCn1ccc2cc(-c3ncc(C(F)F)c(NCCO)n3)c(F)cc2c1=O)Nc1cn[nH]c(=O)c1C(F)(F)F` [Example 222, (S)-6-(5-(difluoromethyl)-4-((2-hydroxyethyl)amino)pyrimidin-2-yl)-7-fluoro-2-(4-((6-oxo-5-(trifluoromethyl)-1,6-dihydropyridazin-4-yl)amino)pentyl)isoquinolin-1(2H)-one], the EC50 is 258 nM.

With `O=c1[nH]ncc(N[C@H]2CCC[C@@H]2CCn2cnc3cc(-c4ncc(Cl)cn4)c(F)cc3c2=O)c1C(F)(F)F` [Example 448, 7-(5-chloropyrimidin-2-yl)-6-fluoro-3-(2-((1R,2S)-2-((6-oxo-5-(trifluoromethyl)-1,6-dihydropyridazin-4-yl)amino)cyclopentyl)ethyl)quinazolin-4(3H)-one], the EC50 came to 6.82 nM.

For `CC[C@@H](CCCn1cnc2cc(-c3ncc(Cl)c(N)n3)c(F)cc2c1=O)Nc1cn[nH]c(=O)c1C(F)(F)F` [Example 342, (S)-7-(4-amino-5-chloropyrimidin-2-yl)-6-fluoro-3-(4-((6-oxo-5-(trifluoromethyl)-1,6-dihydropyridazin-4-yl)amino)hexyl)quinazolin-4(3H)-one], the EC50 was found to be 9.84 nM.
